Reference: patent publication US20080262019A1, “Optical Isomers of (+) and (-)-Trans-2,3,4,4A,5,9B-Hexahydro-2,8-Dimethyl-1H-Pyrido[4,3-B] Indole” (priority 2005, published 2008)
“Also recorded” adds a separate entry of the source. Marks after values point to notes of the source that are not given here.

Test system: male C57BL/6 mice
Test: spontaneous orientation (patroling behavior) test in the closed cross maze
Format: in vivo
Conditions: for F_PtrN, duration of the first patroling cycle (number of arm visits), M / L_TrnN, number of left turns, M / PatrlN, number of patrolling cycles, M / R_TrnN, number of right turns, M / S_PtrN, duration of the second patrolling cycle (number of arm visits), M / S_VisN, spontaneous stereotype behavior, M / rl_Ind, asymmetry index of turns, M / F_ChTm, latency of the first arm visit, M / F_GlTm, length of the first arm visit, M / T_ChTm, total time spent in the central compartment of the maze, M / T_GlTm, total time spent in the side arms of the maze, M / F_PasN, M: 1 hour after treatment; for nootropic effect (decrease in F_PtrN and S_PtrN, increase in PatrlN): single administration into stomach
Method: Preclinical evaluation of nootropic and sedative activity of the compounds was performed in mice using spontaneous orientation (patroling behavior) test in the cross maze, that allows simultaneous evaluation of nootropic, tranquilizing, sedative and psychostimulating effects of the compounds.
For evaluation of the exploratory behavior of the animals the closed cross maze test was used (Salimov R. M., Evaluation of the ordering of the way in the process of exploratory behavior in mice. Journal of the Higher Nervous Activity, 1988, v. 38, #3, pp. 569-571).
The mouse was placed in the central compartment of the maze and the sequence of its visits in different compartments was recorded semi-automatically.
Test was completed after 12 visits (Salimov R. M., Evaluation of the ordering of the way in the process of exploratory behavior in mice. Journal of the Higher Nervous Activity, 1988, v.38, #3, pp. 569-571; Salimov R. M., McBride W. J., Sinclair J. D., Lumeng L., Li T. -K. Performance in the cross-maze and slip funnel tests of four pairs of rat lines selectively bred for divergent alcohol drinking behavior. Addict. Biol. 1996a, 1:273-280; Salimov, R. M., McBride, W. J., McKenzie, D. L., Lumeng, L. and Li, T. -K. Ethanol consumption by adolescent alcohol-preferring P rats on subsequent behavioural performance in the cross-maze and slip funnel tests. Alcohol. 1996b, 13: c. 297-300).
Subsequent computerized analysis of the record singled out a number of behavioral characteristics. The most informative among them were:
1) The total time spent by the animal in the central compartment of the maze—T_ChTm, and the total time spent by the animal in the side arms of the maze—T_GlTm.
These variables reflect the level of the motor activity of the animal and also reflect the intensity of their exploratory drive for the new environment. […] Alcohol 20:61-68; 2000; Markina N. V., Salimov R. M., Poletaeva I. I. Exploratory behaviour of F2 crosses of mouse lines having selected for different brain weight: A multivariate analysis. Prog. Neuro-Psychopharmacol. Biol. Psychiat. 2004, 28(3):583-589).
2) The latency (variable F_ChTm) and the length of the first arm visit (F_GlTm).
These variables reflect the level of anxiety of the animal in the new environment and can be used for the evaluation of the tranquilizing (anxiolythic) effect of the drug (Salimov, R. M. Different behavioral patterns related to alcohol use in rodents: A factor analysis. Alcohol. 1999, 17:157-162).
3) The duration of the first patroling cycle—variable F_PtrN, and the duration of the second patrolling cycle—variable S_PtrN.
These variables are measured by the number of the animal's visits in the maze arms, performed by the animal for the exploration of the environment before it visits all 4 arms at least once (Salimov R. M., Evaluation of the ordering of the way in the process of exploratory behavior in mice. Journal of the Higher Nervous Activity, 1988, v.38, #3, pp. 569-571; Salimov R. M., McBride W. J., Sinclair J. D., Lumeng L., Li T. -K. Performance in the cross-maze and slip funnel tests of four pairs of rat lines selectively bred for divergent alcohol drinking behavior.
4) The number of patrolling cycles—variable PatriN, executed during the time of the experiment, as one of the characteristics of the efficiency of exploratory behavior. The more patroling cycles were accomplished, the more “systematic” and efficient was the exploration of the maze.
Variables from groups 3 and 4 can be used for the evaluation of the nootropic activity of the drugs.
5) The number of right turns—variable R_TrnN, and the number of left turns—variable L_TrN, executed by the animals moving from one arm of the maze to the other, as well as asymmetry index—variable rl_Ind—of these turns:
rl_Ind ═R_TrnN*(R_TrnN+L_TrnN)^−1
6) The spontaneous stereotype behavior—variable S_VisN, that characterizes animal's visiting two arms of the maze in turn more than two times in a row. […]

[1] = 1 mg/kg, single dose, N = 15, in s (unit assumed)
[2] = single administration 0.5 mg/kg
[3] = 100 mg/kg, single dose into stomach, N = 15
[4] = 100 mg/kg, single dose into stomach, N = 15, in s (unit assumed)
[5] = 300 mg/kg, single dose into stomach, N = 15
[6] = 300 mg/kg, single dose into stomach, N = 15, in s (unit assumed)
[7] = 2.5 mg/kg, single dose into stomach, N = 12
[8] = 2.5 mg/kg, single dose into stomach, N = 12, in s (unit assumed)
[9] = 5.0 mg/kg, single dose into stomach, N = 12
[10] = 5.0 mg/kg, single dose into stomach, N = 12, in s (unit assumed)
[11] = single administration, 2.5 and 5.0 mg/kg doses

O=C(CCCN1CCC(O)(c2ccc(Cl)cc2)CC1)c1ccc(F)cc1 [Haloperidol, reference compound]
F_PtrN, duration of the first patroling cycle (number of arm visits), M (1 mg/kg, single dose, N = 15): 6.09
L_TrnN, number of left turns, M (1 mg/kg, single dose, N = 15): 3.36
PatrlN, number of patrolling cycles, M (1 mg/kg, single dose, N = 15): 1.91
R_TrnN, number of right turns, M (1 mg/kg, single dose, N = 15): 3.91
S_PtrN, duration of the second patrolling cycle (number of arm visits), M (1 mg/kg, single dose, N = 15): 5.20
S_VisN, spontaneous stereotype behavior, M (1 mg/kg, single dose, N = 15): 2.35*
rl_Ind, asymmetry index of turns, M (1 mg/kg, single dose, N = 15): 0.54
F_ChTm, latency of the first arm visit, M [1]: 19.30*
F_GlTm, length of the first arm visit, M [1]: 31.85*
T_ChTm, total time spent in the central compartment of the maze, M [1]: 100.65*
T_GlTm, total time spent in the side arms of the maze, M [1]: 284.67*
sedative effect (reduction in the speed of movement in the maze; increase in T_ChTm and T_GlTm) [2]: sedative effect
spontaneous stereotype behavior (variable S_VisN), change [2]: decrease

CN(C)CCOC(=O)COc1ccc(Cl)cc1 [Meclofenaxate, reference compound]
F_PasN, M [3]: 3.6
F_PtrN, duration of the first patroling cycle (number of arm visits), M [3]: 4.8*
L_TrnN, number of left turns, M [3]: 4.5
PatrlN, number of patrolling cycles, M [3]: 2.5*
R_TrnN, number of right turns, M [3]: 3.8
S_PtrN, duration of the second patrolling cycle (number of arm visits), M [3]: 4.6*
S_VisN, spontaneous stereotype behavior, M [3]: 3.7
rl_Ind, asymmetry index of turns, M [3]: 0.4
F_ChTm, latency of the first arm visit, M [4]: 15.4
F_GlTm, length of the first arm visit, M [4]: 29.1
T_ChTm, total time spent in the central compartment of the maze, M [4]: 40.5
T_GlTm, total time spent in the side arms of the maze, M [4]: 145.4
nootropic effect (decrease in F_PtrN and S_PtrN, increase in PatrlN) (100 mg/kg): nootropic effect

NC(=O)CN1CCCC1=O [Piracetam, reference compound]
F_PasN, M [5]: 4.1
F_PtrN, duration of the first patroling cycle (number of arm visits), M [5]: 4.5*
L_TrnN, number of left turns, M [5]: 4.5*
PatrlN, number of patrolling cycles, M [5]: 2.1
R_TrnN, number of right turns, M [5]: 3.4*
S_PtrN, duration of the second patrolling cycle (number of arm visits), M [5]: 5.4
S_VisN, spontaneous stereotype behavior, M [5]: 4.3*
rl_Ind, asymmetry index of turns, M [5]: 0.4*
F_ChTm, latency of the first arm visit, M [6]: 11.6
F_GlTm, length of the first arm visit, M [6]: 25.0
T_ChTm, total time spent in the central compartment of the maze, M [6]: 46.1
T_GlTm, total time spent in the side arms of the maze, M [6]: 135.1
nootropic effect (decrease in F_PtrN and S_PtrN, increase in PatrlN) (300 mg/kg): nootropic effect

Cc1ccc2c(c1)[C@H]1CN(C)CC[C@@H]1N2 [Trans-(+)-isomer, (+)-trans-2,8-dimethyl-2,3,4,4a,5,9b-hexahydro-1H-pyrido[4,3-b]indole]
F_PtrN, duration of the first patroling cycle (number of arm visits), M [7]: 5.75
L_TrnN, number of left turns, M [7]: 4.17
PatrlN, number of patrolling cycles, M [7]: 2.00
R_TrnN, number of right turns, M [7]: 2.67
S_PtrN, duration of the second patrolling cycle (number of arm visits), M [7]: 4.55*^+
S_VisN, spontaneous stereotype behavior, M [7]: 5.75
T_GlTm, total time spent in the side arms of the maze, M [7]: 271.98*^+
rl_Ind, asymmetry index of turns, M [7]: 0.39
F_ChTm, latency of the first arm visit, M [8]: 9.18
F_GlTm, length of the first arm visit, M [8]: 22.91
T_ChTm, total time spent in the central compartment of the maze, M [8]: 53.27*
F_PtrN, duration of the first patroling cycle (number of arm visits), M [9]: 6.30
L_TrnN, number of left turns, M [9]: 4.82
PatrlN, number of patrolling cycles, M [9]: 1.64
R_TrnN, number of right turns, M [9]: 3.09
S_PtrN, duration of the second patrolling cycle (number of arm visits), M [9]: 5.43^+
S_VisN, spontaneous stereotype behavior, M [9]: 5.55
T_GlTm, total time spent in the side arms of the maze, M [9]: 391.25*^+
rl_Ind, asymmetry index of turns, M [9]: 0.38
F_ChTm, latency of the first arm visit, M [10]: 24.60*
F_GlTm, length of the first arm visit, M [10]: 43.48*
T_ChTm, total time spent in the central compartment of the maze, M [10]: 58.27*
sedative effect compared with the other optic isomer ((+)- versus (−)-trans isomer, 2.5 and 5.0 mg/kg): higher sedative effect
nootropic effect (improvement in the patrolling behavior, decrease in S_PtrN) [11]: nootropic effect
sedative effect (reduction in the speed of movement in the maze; increase in T_ChTm and T_GlTm) [11]: sedative effect
spontaneous stereotype behavior (variable S_VisN), change [11]: did not demonstrate this ability

Cc1ccc2c(c1)[C@@H]1CN(C)CC[C@H]1N2 [Trans-(−)-isomer, (−)-trans-2,3,4,4a,5,9b-hexahydro-2,8-dimethyl-1H-pyrido[4,3-b]indole]
F_PtrN, duration of the first patroling cycle (number of arm visits), M [7]: 6.10
L_TrnN, number of left turns, M [7]: 3.00
PatrlN, number of patrolling cycles, M [7]: 1.67
R_TrnN, number of right turns, M [7]: 3.08
S_PtrN, duration of the second patrolling cycle (number of arm visits), M [7]: 4.43*^+
S_VisN, spontaneous stereotype behavior, M [7]: 6.33
T_GlTm, total time spent in the side arms of the maze, M [7]: 166.78*^+
rl_Ind, asymmetry index of turns, M [7]: 0.50
F_ChTm, latency of the first arm visit, M [8]: 10.75
F_GlTm, length of the first arm visit, M [8]: 20.27
T_ChTm, total time spent in the central compartment of the maze, M [8]: 33.10
F_PtrN, duration of the first patroling cycle (number of arm visits), M [9]: 5.42
L_TrnN, number of left turns, M [9]: 3.83
PatrlN, number of patrolling cycles, M [9]: 2.08
R_TrnN, number of right turns, M [9]: 5.08*
S_PtrN, duration of the second patrolling cycle (number of arm visits), M [9]: 5.00^+
S_VisN, spontaneous stereotype behavior, M [9]: 4.17*
T_GlTm, total time spent in the side arms of the maze, M [9]: 238.16*^+
rl_Ind, asymmetry index of turns, M [9]: 0.58
F_ChTm, latency of the first arm visit, M [10]: 8.33
F_GlTm, length of the first arm visit, M [10]: 33.62*
T_ChTm, total time spent in the central compartment of the maze, M [10]: 42.23*
nootropic effect (improvement in the patrolling behavior, decrease in S_PtrN) [11]: nootropic effect
sedative effect (reduction in the speed of movement in the maze; increase in T_ChTm and T_GlTm) [11]: sedative effect
spontaneous stereotype behavior (variable S_VisN), change (single administration, 2.5 and 5.0 mg/kg doses, listed as (−)-trans-2,8-dimethyl-2,3,4,4a,5,9b-hexahydro-1H-pyrido[4,3-b]indole): significantly decreased; also recorded: decrease
